Test results as given in patent publication US20060058374A1, “Urotensin II receptor agents” (priority 2002, published 2006).

Assays:
Assay type in all cases: cell-based
[1] = biological target: T1, Serotonin 5HT2b (Homo sapiens, UniProt P41595); test: R-SAT assay, Serotonin 5HT2b
T1 construct: expressed in transfected cells; host or cells: NIH3T3
Method: (§1) The test compound of Formula III was screened according to a modification of the method described in U.S. Pat. No. 5,912,312. The method, herein referred to as Method 1, consists of the following:
(§2) Receptor Selection and Amplification (R-SAT) Assays.
(§3) R-SAT assays were performed with minor modifications from that previously described (6). Briefly, NIH3T3 cells were grown in tissue culture treated rollerbottles to 40-50% confluence. Cells were transfected for 12-16 hours with plasmid DNAs using superfect (Qiagen Inc.) as per manufacture's protocols. R-SAT's were generally performed with 10 μg/rollerbottle of receptor and 50 μg/rollerbottle of Beta-galactosidase plasmid DNA. All receptor and G-protein constructs used were in the PSI mammalian expression vector (Promega Inc.). The transfected cells were then trypsinized and frozen in DMEM containing 10% DMSO. Frozen cells were later thawed, plated at 10,000-40,000 cells per well of a 96 ½ area plate that contained drug. Cells were then grown in a humidified atmosphere with 5% ambient CO2 for five days. Media was then removed from the plates and marker gene activity was measured by the addition of the beta-galactosidase substrate ONPG (in PBS with 5% NP-40). The resulting colorimetric reaction was measured in a spectrophotometric plate reader (Titertek Inc.) at […].
(§4) EC50, IC50 and Ki are presented as the negative of the calculated potency in Molar.

[2] = biological target: T2, CRF2b (Homo sapiens, UniProt Q13324); test: R-SAT assay, CRF2b; conditions: percent maximal activation relative to control compound
T2 construct: expressed in transfected cells; host or cells: NIH3T3
Method: as §1, §2
as §3, with “Cells were then grown in a humidified atmosphere with 5% ambient CO2 for five days.” left out
as §4

[3] = biological target: T3, Serotonin 5HT2a (Homo sapiens, UniProt P28223); test: R-SAT assay, Serotonin 5HT2a
T3 construct: expressed in transfected cells; host or cells: NIH3T3
Method: as §1, §2
as §3, with “Cells were then grown in a humidified atmosphere with 5% ambient CO2 for five days.” left out
as §4

[4] = biological target: T4, Serotonin 5HT-1A (Homo sapiens, UniProt P08908); test: R-SAT assay, Serotonin 5HT-1A; conditions: competitive antagonist mode; percent maximal inhibition relative to control standard compound
T4 construct: expressed in transfected cells; host or cells: NIH3T3
Method: as §1, §2
as §3, with “Cells were then grown in a humidified atmosphere with 5% ambient CO2 for five days.” left out
as §4

[5] = biological target: T5, Acetylcholine m3 (Homo sapiens, UniProt P20309); test: R-SAT assay, Acetylcholine m3
T5 construct: expressed in transfected cells; host or cells: NIH3T3
Method: as §1, §2
as §3, with “Cells were then grown in a humidified atmosphere with 5% ambient CO2 for five days.” left out
as §4

[6] = biological target: T6, Dopamine D5 (Homo sapiens, UniProt P21918); test: R-SAT assay, Dopamine D5
T6 construct: expressed in transfected cells; host or cells: NIH3T3
Method: as §1, §2
as §3, with “Cells were then grown in a humidified atmosphere with 5% ambient CO2 for five days.” left out
as §4

[7] = biological target: T7, Acetylcholine m5 (Homo sapiens, UniProt P08912); test: R-SAT assay, Acetylcholine m5
T7 construct: expressed in transfected cells; host or cells: NIH3T3
T7 sequence (P08912 1-532): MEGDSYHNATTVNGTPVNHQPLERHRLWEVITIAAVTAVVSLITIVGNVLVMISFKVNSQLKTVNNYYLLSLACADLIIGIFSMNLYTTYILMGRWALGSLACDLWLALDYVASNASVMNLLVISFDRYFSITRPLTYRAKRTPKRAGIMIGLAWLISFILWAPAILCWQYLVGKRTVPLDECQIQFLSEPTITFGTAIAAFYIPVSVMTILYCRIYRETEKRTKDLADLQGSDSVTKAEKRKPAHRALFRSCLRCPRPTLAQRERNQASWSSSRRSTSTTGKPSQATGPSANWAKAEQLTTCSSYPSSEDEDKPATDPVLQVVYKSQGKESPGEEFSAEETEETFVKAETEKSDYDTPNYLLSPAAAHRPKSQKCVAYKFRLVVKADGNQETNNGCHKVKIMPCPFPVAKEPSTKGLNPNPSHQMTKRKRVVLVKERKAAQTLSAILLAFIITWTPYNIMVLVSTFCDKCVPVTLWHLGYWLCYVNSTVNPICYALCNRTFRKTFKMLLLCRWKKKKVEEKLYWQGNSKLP
Method: as §1, §2, §3, §4

[8] = competitive antagonist mode, percent maximal inhibition relative to control standard compound
[9] = inverse agonist mode, percent maximal inhibition relative to repression of basal activity by a control standard compound
[10] = percent maximal activation relative to control compound

T1 sequence (P41595 whole entry): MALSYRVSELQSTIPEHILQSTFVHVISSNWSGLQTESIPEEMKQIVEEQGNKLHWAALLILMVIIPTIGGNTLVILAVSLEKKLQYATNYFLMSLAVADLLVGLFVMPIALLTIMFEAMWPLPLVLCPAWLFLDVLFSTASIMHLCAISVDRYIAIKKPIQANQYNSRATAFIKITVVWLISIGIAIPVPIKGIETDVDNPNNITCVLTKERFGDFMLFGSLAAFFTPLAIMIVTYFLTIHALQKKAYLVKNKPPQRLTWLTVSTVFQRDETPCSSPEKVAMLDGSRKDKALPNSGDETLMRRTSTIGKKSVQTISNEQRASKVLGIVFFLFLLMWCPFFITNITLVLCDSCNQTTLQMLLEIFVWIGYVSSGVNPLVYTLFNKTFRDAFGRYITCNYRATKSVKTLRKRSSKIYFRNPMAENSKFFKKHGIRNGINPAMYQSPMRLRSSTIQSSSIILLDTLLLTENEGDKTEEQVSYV
T5 sequence (P20309 whole entry): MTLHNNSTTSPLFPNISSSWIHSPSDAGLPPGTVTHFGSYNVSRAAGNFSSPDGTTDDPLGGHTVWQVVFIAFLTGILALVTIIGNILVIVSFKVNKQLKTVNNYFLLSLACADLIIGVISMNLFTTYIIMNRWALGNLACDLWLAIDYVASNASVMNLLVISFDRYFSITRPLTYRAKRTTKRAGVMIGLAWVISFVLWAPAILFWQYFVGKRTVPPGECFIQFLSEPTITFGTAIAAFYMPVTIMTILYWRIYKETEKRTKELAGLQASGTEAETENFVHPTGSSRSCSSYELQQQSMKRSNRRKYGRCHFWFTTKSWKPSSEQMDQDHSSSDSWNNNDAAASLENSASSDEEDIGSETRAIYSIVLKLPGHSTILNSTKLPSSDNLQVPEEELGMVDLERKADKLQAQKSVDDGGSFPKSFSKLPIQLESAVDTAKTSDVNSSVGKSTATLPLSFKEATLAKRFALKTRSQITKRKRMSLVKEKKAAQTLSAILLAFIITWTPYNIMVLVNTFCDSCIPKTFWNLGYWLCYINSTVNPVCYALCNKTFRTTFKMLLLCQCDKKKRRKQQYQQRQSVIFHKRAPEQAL
T3 sequence (P28223 whole entry): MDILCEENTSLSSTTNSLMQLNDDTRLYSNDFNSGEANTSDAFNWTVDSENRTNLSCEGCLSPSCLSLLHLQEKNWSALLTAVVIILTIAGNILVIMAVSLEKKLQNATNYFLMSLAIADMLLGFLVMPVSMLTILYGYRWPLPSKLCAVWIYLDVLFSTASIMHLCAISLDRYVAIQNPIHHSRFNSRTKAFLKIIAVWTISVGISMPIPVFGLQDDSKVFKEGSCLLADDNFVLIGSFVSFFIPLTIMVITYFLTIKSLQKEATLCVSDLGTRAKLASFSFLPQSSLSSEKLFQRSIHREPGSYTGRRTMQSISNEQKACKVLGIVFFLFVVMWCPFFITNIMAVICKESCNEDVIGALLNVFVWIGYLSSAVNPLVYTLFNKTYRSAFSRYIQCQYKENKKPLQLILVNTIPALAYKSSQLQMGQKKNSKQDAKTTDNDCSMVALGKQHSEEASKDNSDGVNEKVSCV
T6 sequence (P21918 whole entry): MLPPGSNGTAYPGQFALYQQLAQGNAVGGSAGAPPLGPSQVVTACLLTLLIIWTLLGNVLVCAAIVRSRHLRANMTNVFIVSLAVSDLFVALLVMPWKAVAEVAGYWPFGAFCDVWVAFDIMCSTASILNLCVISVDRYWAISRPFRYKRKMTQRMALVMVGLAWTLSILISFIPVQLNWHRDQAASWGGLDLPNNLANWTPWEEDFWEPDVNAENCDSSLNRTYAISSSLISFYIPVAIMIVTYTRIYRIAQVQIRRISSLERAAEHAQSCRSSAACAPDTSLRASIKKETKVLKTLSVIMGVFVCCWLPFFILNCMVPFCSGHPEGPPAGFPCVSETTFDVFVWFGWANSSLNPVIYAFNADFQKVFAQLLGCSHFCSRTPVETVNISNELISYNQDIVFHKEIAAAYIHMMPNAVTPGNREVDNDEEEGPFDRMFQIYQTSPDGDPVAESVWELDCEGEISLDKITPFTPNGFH
T2 sequence (Q13324 1-438 isoform Q13324-2): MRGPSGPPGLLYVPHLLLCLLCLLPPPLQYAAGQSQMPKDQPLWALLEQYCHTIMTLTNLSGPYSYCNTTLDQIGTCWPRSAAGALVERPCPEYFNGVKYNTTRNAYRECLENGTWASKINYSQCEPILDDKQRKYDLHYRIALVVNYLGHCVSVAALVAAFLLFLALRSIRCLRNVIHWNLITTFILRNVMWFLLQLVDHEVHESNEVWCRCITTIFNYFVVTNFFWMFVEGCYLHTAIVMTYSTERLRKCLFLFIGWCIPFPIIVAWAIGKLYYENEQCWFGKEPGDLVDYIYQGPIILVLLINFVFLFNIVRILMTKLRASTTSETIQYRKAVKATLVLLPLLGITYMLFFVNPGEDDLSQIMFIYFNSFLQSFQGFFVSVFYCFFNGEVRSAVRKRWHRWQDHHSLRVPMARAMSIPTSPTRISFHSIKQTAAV
T4 sequence (P08908 whole entry): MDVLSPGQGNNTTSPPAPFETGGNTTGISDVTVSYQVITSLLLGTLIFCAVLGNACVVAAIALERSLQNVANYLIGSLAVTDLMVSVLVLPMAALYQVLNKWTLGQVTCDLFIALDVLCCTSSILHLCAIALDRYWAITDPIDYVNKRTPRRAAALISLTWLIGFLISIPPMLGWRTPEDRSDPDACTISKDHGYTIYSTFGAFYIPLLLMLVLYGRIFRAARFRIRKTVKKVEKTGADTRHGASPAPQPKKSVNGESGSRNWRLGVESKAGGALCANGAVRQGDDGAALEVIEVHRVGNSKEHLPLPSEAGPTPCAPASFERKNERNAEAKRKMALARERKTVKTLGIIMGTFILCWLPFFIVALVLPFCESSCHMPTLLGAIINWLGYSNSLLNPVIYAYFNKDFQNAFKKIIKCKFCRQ

## CN(C)CCC1(c2ccc(Cl)cc2)Cc2ccccc2C(=O)O1 (centres unmarked) [Formula III]
[1]; [8]
  Competitive Antagonist % Inh: 0%
[1]; [9]
  Inverse Agonist % Inh: 0%
[1]; [10]
  Agonist % Eff: 0%
[2]
  Agonist % Eff: 0%
[3]; [9]
  Inverse Agonist % Inh: 11.9%
[3]; [10]
  Agonist % Eff: 58%
[4]
  Competitive Antagonist % Inh: 0%
[5]; [8]
  Competitive Antagonist % Inh: 28%
[5]; [10]
  Agonist % Eff: 1.8%
[6]; [8]
  Competitive Antagonist % Inh: 0%
[6]; [10]
  Agonist % Eff: 0%
[7]; competitive antagonist mode, negative of the calculated potency in Molar
  Ki: > 2240 nM
[7]; [8]
  Competitive Antagonist % Inh: 55%
[7]; [10]
  Agonist % Eff: 3.6%
